# Measured values reported in the supplement of paper PMC10307832.
# Assays:
# Assay in all cases: relative viability (nuclei count vs DMSO), 5 days (fraction); higher = more cells survive
# NCI-H1563 = tested on: NCI-H1563
# Method in brief: (§1)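 Relative viability was taken as the ratio of nuclei in treated wells to nuclei in vehicle wells. Lung cancer cell lines in 1536-well plates received compounds by pin tool one day after seeding, either one drug alone or a fixed anchor-drug dose plus five library-drug doses (not always all listed) in √10 steps. Nuclei were counted on 4× images after 5 days of treatment, and values are medians of duplicate plates.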
# LC-2-ad = tested on: LC-2-ad
# Method in brief: as §1
# H3255 = tested on: H3255
# Method in brief: as §1
# NCI-H2347 = tested on: NCI-H2347
# Method in brief: as §1
# HCC-44 = tested on: HCC-44
# Method in brief: as §1
# NCI-H23 = tested on: NCI-H23
# Method in brief: as §1
# LCLC-103H = tested on: LCLC-103H
# Method in brief: as §1
# NCI-H460 = tested on: NCI-H460
# Method in brief: as §1
# PC-14 = tested on: PC-14
# Method in brief: as §1
# SW 1573 = tested on: SW 1573
# Method in brief: as §1
# A-427 = tested on: A-427
# Method in brief: as §1
# NCI-H1793 = tested on: NCI-H1793
# Method in brief: as §1
# NCI-H2228 = tested on: NCI-H2228
# Method in brief: as §1
# LU99A = tested on: LU99A
# Method in brief: as §1
# NCI-H727 = tested on: NCI-H727
# Method in brief: as §1
# NCI-H596 = tested on: NCI-H596
# Method in brief: as §1
# COR-L23 = tested on: COR-L23
# Method in brief: as §1
# 201T = tested on: 201T
# Method in brief: as §1
# LCLC-97TM1 = tested on: LCLC-97TM1
# Method in brief: as §1
# LK-2 = tested on: LK-2
# Method in brief: as §1
structure (smiles),measurement,setting,value
COc1cc2nccc(Oc3ccc(NC(=O)Nc4cc(C)on4)c(Cl)c3)c2cc1OC [Tivozanib] + Cc1nc(NC(=O)N2CCC[C@H]2C(N)=O)sc1-c1ccnc(C(C)(C)C(F)(F)F)c1 [Alpelisib] (partner 2 µM),relative viability,NCI-H1563; first compound 0.005 µM,0.926
same,relative viability,NCI-H1563; first compound 0.01581 µM,0.976
same,relative viability,NCI-H1563; first compound 0.05 µM,0.972
same,relative viability,NCI-H1563; first compound 0.1581 µM,0.843
same,relative viability,NCI-H1563; first compound 0.5 µM,0.835
same,relative viability,LC-2-ad; first compound 0.005 µM,0.902
same,relative viability,LC-2-ad; first compound 0.01581 µM,0.809
same,relative viability,LC-2-ad; first compound 0.05 µM,0.8
same,relative viability,LC-2-ad; first compound 0.1581 µM,0.629
same,relative viability,LC-2-ad; first compound 0.5 µM,0.654
same,relative viability,H3255; first compound 0.005 µM,0.727
same,relative viability,H3255; first compound 0.01581 µM,0.716
same,relative viability,H3255; first compound 0.05 µM,0.684
same,relative viability,H3255; first compound 0.1581 µM,0.689
same,relative viability,H3255; first compound 0.5 µM,0.615
same,relative viability,NCI-H2347; first compound 0.005 µM,1.01
same,relative viability,NCI-H2347; first compound 0.01581 µM,1.03
same,relative viability,NCI-H2347; first compound 0.05 µM,1.03
same,relative viability,NCI-H2347; first compound 0.1581 µM,1.1
same,relative viability,NCI-H2347; first compound 0.5 µM,0.987
same,relative viability,HCC-44; first compound 0.005 µM,0.815
same,relative viability,HCC-44; first compound 0.01581 µM,0.758
same,relative viability,HCC-44; first compound 0.05 µM,0.803
same,relative viability,HCC-44; first compound 0.1581 µM,0.756
same,relative viability,HCC-44; first compound 0.5 µM,0.831
same,relative viability,NCI-H23; first compound 0.005 µM,0.735
same,relative viability,NCI-H23; first compound 0.01581 µM,0.651
same,relative viability,NCI-H23; first compound 0.05 µM,0.615
same,relative viability,NCI-H23; first compound 0.1581 µM,0.497
same,relative viability,NCI-H23; first compound 0.5 µM,0.561
same,relative viability,LCLC-103H; first compound 0.005 µM,0.951
same,relative viability,LCLC-103H; first compound 0.01581 µM,0.938
same,relative viability,LCLC-103H; first compound 0.05 µM,1.04
same,relative viability,LCLC-103H; first compound 0.1581 µM,0.997
same,relative viability,LCLC-103H; first compound 0.5 µM,1.01
same,relative viability,NCI-H460; first compound 0.005 µM,0.483
same,relative viability,NCI-H460; first compound 0.01581 µM,0.422
same,relative viability,NCI-H460; first compound 0.05 µM,0.454
same,relative viability,NCI-H460; first compound 0.1581 µM,0.609
same,relative viability,NCI-H460; first compound 0.5 µM,0.543
same,relative viability,PC-14; first compound 0.005 µM,0.89
same,relative viability,PC-14; first compound 0.01581 µM,0.993
same,relative viability,PC-14; first compound 0.05 µM,1.07
same,relative viability,PC-14; first compound 0.1581 µM,0.911
same,relative viability,PC-14; first compound 0.5 µM,0.873
same,relative viability,SW 1573; first compound 0.005 µM,0.796
same,relative viability,SW 1573; first compound 0.01581 µM,0.825
same,relative viability,SW 1573; first compound 0.05 µM,0.784
same,relative viability,SW 1573; first compound 0.1581 µM,0.639
same,relative viability,SW 1573; first compound 0.5 µM,0.776
same,relative viability,A-427; first compound 0.005 µM,1.05
same,relative viability,A-427; first compound 0.01581 µM,1.1
same,relative viability,A-427; first compound 0.05 µM,1.12
same,relative viability,A-427; first compound 0.1581 µM,0.925
same,relative viability,A-427; first compound 0.5 µM,1.06
same,relative viability,NCI-H1793; first compound 0.005 µM,0.643
same,relative viability,NCI-H1793; first compound 0.01581 µM,0.617
same,relative viability,NCI-H1793; first compound 0.05 µM,0.729
same,relative viability,NCI-H1793; first compound 0.5 µM,0.705
same,relative viability,NCI-H2228; first compound 0.005 µM,0.653
same,relative viability,NCI-H2228; first compound 0.01581 µM,0.81
same,relative viability,NCI-H2228; first compound 0.05 µM,0.944
same,relative viability,NCI-H2228; first compound 0.1581 µM,0.743
same,relative viability,NCI-H2228; first compound 0.5 µM,0.72
same,relative viability,LU99A; first compound 0.005 µM,0.484
same,relative viability,LU99A; first compound 0.01581 µM,0.555
same,relative viability,LU99A; first compound 0.05 µM,0.521
same,relative viability,LU99A; first compound 0.5 µM,0.469
same,relative viability,NCI-H727; first compound 0.005 µM,0.505
same,relative viability,NCI-H727; first compound 0.01581 µM,0.501
same,relative viability,NCI-H727; first compound 0.05 µM,0.675
same,relative viability,NCI-H727; first compound 0.5 µM,0.615
same,relative viability,NCI-H596; first compound 0.005 µM,0.462
same,relative viability,NCI-H596; first compound 0.01581 µM,0.464
same,relative viability,NCI-H596; first compound 0.05 µM,0.544
same,relative viability,NCI-H596; first compound 0.1581 µM,0.47
same,relative viability,NCI-H596; first compound 0.5 µM,0.595
same,relative viability,COR-L23; first compound 0.005 µM,0.687
same,relative viability,COR-L23; first compound 0.01581 µM,0.778
same,relative viability,COR-L23; first compound 0.05 µM,0.931
same,relative viability,COR-L23; first compound 0.1581 µM,0.709
same,relative viability,COR-L23; first compound 0.5 µM,0.582
same,relative viability,201T; first compound 0.005 µM,0.993
same,relative viability,201T; first compound 0.01581 µM,1
same,relative viability,201T; first compound 0.05 µM,1.05
same,relative viability,201T; first compound 0.1581 µM,1.02
same,relative viability,201T; first compound 0.5 µM,1.08
same,relative viability,LCLC-97TM1; first compound 0.005 µM,0.191
same,relative viability,LCLC-97TM1; first compound 0.01581 µM,0.206
same,relative viability,LCLC-97TM1; first compound 0.1581 µM,0.237
same,relative viability,LCLC-97TM1; first compound 0.5 µM,0.247
same,relative viability,LK-2; first compound 0.005 µM,0.93
same,relative viability,LK-2; first compound 0.01581 µM,1.19
same,relative viability,LK-2; first compound 0.05 µM,1.55
same,relative viability,LK-2; first compound 0.1581 µM,0.84
same,relative viability,LK-2; first compound 0.5 µM,0.896
